Assay results from patent US20130252988A1, “COMPOSITIONS AND METHODS FOR TREATING MYELOFIBROSIS” (TARGEGEN, INC., priority 2010, published 2013).
“Also recorded” adds a separate entry of the source. Structures can show the parent of a compound that is named as a salt. Where two headings read alike, the source gives them in different places. Marks after values point to notes of the source that are not given here.

Test system: subjects with myelofibrosis
Conditions: for Abdominal pain Severity Grade 1-2, subjects n (%) / Abdominal pain Severity Grade 3-4, subjects n (%) / Alanine aminotransferase increased Severity Grade 1-2, subjects n (%) / Alanine aminotransferase increased Severity Grade 3-4, subjects n (%) / Anorexia Severity Grade 1-2, subjects n (%) / Anorexia Severity Grade 3-4, subjects n (%) / Aspartate aminotransferase increased Severity Grade 1-2, subjects n (%) / Aspartate aminotransferase increased Severity Grade 3-4, subjects n (%) / Blood alkaline phosphatase increased Severity Grade 1-2, subjects n (%) / Blood alkaline phosphatase increased Severity Grade 3-4, subjects n (%) / Blood creatinine increased Severity Grade 1-2, subjects n (%) / Blood creatinine increased Severity Grade 3-4, subjects n (%) / Diarrhea Severity Grade 1-2, subjects n (%) / Diarrhea Severity Grade 3-4, subjects n (%) / Dry skin Severity Grade 1-2, subjects n (%) / Dry skin Severity Grade 3-4, subjects n (%) / Edema peripheral Severity Grade 1-2, subjects n (%) / Edema peripheral Severity Grade 3-4, subjects n (%) / Hyperlipasemia Severity Grade 1-2, subjects n (%) / Hyperlipasemia Severity Grade 3-4, subjects n (%) / Hypocalcemia Severity Grade 1-2, subjects n (%) / Hypocalcemia Severity Grade 3-4, subjects n (%) / Nausea Severity Grade 1-2, subjects n (%) / Nausea Severity Grade 3-4, subjects n (%) / Skin exfoliation Severity Grade 1-2, subjects n (%) / Skin exfoliation Severity Grade 3-4, subjects n (%) / Vomiting Severity Grade 1-2, subjects n (%) / Vomiting Severity Grade 3-4, subjects n (%): Table 9: AE at least possibly related to TG101348; for Neutropenia Severity Grade 1-2, subjects n (%) / Neutropenia Severity Grade 3-4, subjects n (%) / Thrombocytopenia Severity Grade 1-2, subjects n (%) / Thrombocytopenia Severity Grade 3-4, subjects n (%) / Anemia Severity Grade 1-2, subjects n (%) / Anemia Severity Grade 3-4, subjects n (%): Table 10: at least possibly related
[1] = Table 5: treatment-emergent non-hematologic laboratory finding, MTD subjects (N = 40)
[2] = All Subjects, not transfusion dependent at study entry (n = 37)
[3] = MTD Cohort, not transfusion dependent at study entry (n = 24)
[4] = overall, at least possibly related
[5] = subject 106-024, 800/680 mg/day, onset day 87, stopped temporarily, Recovered/resolved

Cc1cnc(Nc2ccc(OCCN3CCCC3)cc2)nc1Nc1cccc(S(=O)(=O)NC(C)(C)C)c1 [TG101348, N-tert-butyl-3-[(5-methyl-2-{[4-(2-pyrrolidin-1-ylethoxy)phenyl]amino}pyrimidin-4-yl)amino]benzenesulfonamide dihydrochloride monohydrate]
Hyperkalemia Grade 4, subjects n (%) [1]: 1 (3%) | Hyperlipasemia Grade 2, subjects n (%) [1]: 4 (10%) | Hyperlipasemia Grade 3, subjects n (%) [1]: 3 (8%) | Hyperlipasemia Grade 4, subjects n (%) [1]: 2 (5%) | Hypocalcemia Grade 2, subjects n (%) [1]: 8 (20%) | Hypocalcemia Grade 3, subjects n (%) [1]: 3 (8%) | Hypocalcemia Grade 4, subjects n (%) [1]: 0 | Abdominal pain Severity Grade 1-2, subjects n (%) (All Subjects (n = 59)): 6 (10.2%) | Abdominal pain Severity Grade 3-4, subjects n (%) (All Subjects (n = 59)): 0 | Alanine aminotransferase increased Severity Grade 1-2, subjects n (%) (All Subjects (n = 59)): 11 (18.6%) | Alanine aminotransferase increased Severity Grade 3-4, subjects n (%) (All Subjects (n = 59)): 4 (6.8%) | Anorexia Severity Grade 1-2, subjects n (%) (All Subjects (n = 59)): 8 (13.6%) | Anorexia Severity Grade 3-4, subjects n (%) (All Subjects (n = 59)): 0 | Aspartate aminotransferase increased Severity Grade 1-2, subjects n (%) (All Subjects (n = 59)): 15 (25.4%) | Aspartate aminotransferase increased Severity Grade 3-4, subjects n (%) (All Subjects (n = 59)): 1 (1.7%) | Blood alkaline phosphatase increased Severity Grade 1-2, subjects n (%) (All Subjects (n = 59)): 10 (16.9%) | Blood alkaline phosphatase increased Severity Grade 3-4, subjects n (%) (All Subjects (n = 59)): 0 | Blood creatinine increased Severity Grade 1-2, subjects n (%) (All Subjects (n = 59)): 14 (23.7%) | Blood creatinine increased Severity Grade 3-4, subjects n (%) (All Subjects (n = 59)): 0 | Diarrhea Severity Grade 1-2, subjects n (%) (All Subjects (n = 59)): 32 (54.2%) | Diarrhea Severity Grade 3-4, subjects n (%) (All Subjects (n = 59)): 6 (10.2%) | Dry skin Severity Grade 1-2, subjects n (%) (All Subjects (n = 59)): 6 (10.2%) | Dry skin Severity Grade 3-4, subjects n (%) (All Subjects (n = 59)): 0 | Edema peripheral Severity Grade 1-2, subjects n (%) (All Subjects (n = 59)): 6 (10.2%) | Edema peripheral Severity Grade 3-4, subjects n (%) (All Subjects (n = 59)): 0 | Hyperlipasemia Severity Grade 1-2, subjects n (%) (All Subjects (n = 59)): 10 (16.9%) | Hyperlipasemia Severity Grade 3-4, subjects n (%) (All Subjects (n = 59)): 6 (10.2%) | Hypocalcemia Severity Grade 1-2, subjects n (%) (All Subjects (n = 59)): 7 (11.9%) | Hypocalcemia Severity Grade 3-4, subjects n (%) (All Subjects (n = 59)): 1 (1.7%) | Nausea Severity Grade 1-2, subjects n (%) (All Subjects (n = 59)): 39 (66.1%) | Nausea Severity Grade 3-4, subjects n (%) (All Subjects (n = 59)): 2 (3.4%) | Skin exfoliation Severity Grade 1-2, subjects n (%) (All Subjects (n = 59)): 8 (13.6%) | Skin exfoliation Severity Grade 3-4, subjects n (%) (All Subjects (n = 59)): 0 | Vomiting Severity Grade 1-2, subjects n (%) (All Subjects (n = 59)): 32 (54.2%) | Vomiting Severity Grade 3-4, subjects n (%) (All Subjects (n = 59)): 2 (3.4%) | Abdominal pain Severity Grade 1-2, subjects n (%) (MTD Cohort (n = 40)): 4 (10.0%) | Abdominal pain Severity Grade 3-4, subjects n (%) (MTD Cohort (n = 40)): 0 | Alanine aminotransferase increased Severity Grade 1-2, subjects n (%) (MTD Cohort (n = 40)): 9 (22.5%) | Alanine aminotransferase increased Severity Grade 3-4, subjects n (%) (MTD Cohort (n = 40)): 3 (7.5%) | Anorexia Severity Grade 1-2, subjects n (%) (MTD Cohort (n = 40)): 6 (15.0%) | Anorexia Severity Grade 3-4, subjects n (%) (MTD Cohort (n = 40)): 0 | Aspartate aminotransferase increased Severity Grade 1-2, subjects n (%) (MTD Cohort (n = 40)): 13 (32.5%) | Aspartate aminotransferase increased Severity Grade 3-4, subjects n (%) (MTD Cohort (n = 40)): 1 (2.5%) | Blood alkaline phosphatase increased Severity Grade 1-2, subjects n (%) (MTD Cohort (n = 40)): 9 (22.5%) | Blood alkaline phosphatase increased Severity Grade 3-4, subjects n (%) (MTD Cohort (n = 40)): 0 | Blood creatinine increased Severity Grade 1-2, subjects n (%) (MTD Cohort (n = 40)): 11 (27.5%) | Blood creatinine increased Severity Grade 3-4, subjects n (%) (MTD Cohort (n = 40)): 0 | Diarrhea Severity Grade 1-2, subjects n (%) (MTD Cohort (n = 40)): 25 (62.5%) | Diarrhea Severity Grade 3-4, subjects n (%) (MTD Cohort (n = 40)): 5 (12.5%) | Dry skin Severity Grade 1-2, subjects n (%) (MTD Cohort (n = 40)): 6 (15%) | Dry skin Severity Grade 3-4, subjects n (%) (MTD Cohort (n = 40)): 0 | Edema peripheral Severity Grade 1-2, subjects n (%) (MTD Cohort (n = 40)): 4 (10.0%) | Edema peripheral Severity Grade 3-4, subjects n (%) (MTD Cohort (n = 40)): 0 | Hyperlipasemia Severity Grade 1-2, subjects n (%) (MTD Cohort (n = 40)): 9 (22.5%) | Hyperlipasemia Severity Grade 3-4, subjects n (%) (MTD Cohort (n = 40)): 6 (15.0%) | Hypocalcemia Severity Grade 1-2, subjects n (%) (MTD Cohort (n = 40)): 6 (15.0%) | Hypocalcemia Severity Grade 3-4, subjects n (%) (MTD Cohort (n = 40)): 1 (2.5%) | Nausea Severity Grade 1-2, subjects n (%) (MTD Cohort (n = 40)): 31 (77.5%) | Nausea Severity Grade 3-4, subjects n (%) (MTD Cohort (n = 40)): 2 (5.0%) | Skin exfoliation Severity Grade 1-2, subjects n (%) (MTD Cohort (n = 40)): 8 (20.0%) | Skin exfoliation Severity Grade 3-4, subjects n (%) (MTD Cohort (n = 40)): 0 | Vomiting Severity Grade 1-2, subjects n (%) (MTD Cohort (n = 40)): 27 (67.5%) | Vomiting Severity Grade 3-4, subjects n (%) (MTD Cohort (n = 40)): 1 (2.5%) | Neutropenia Severity Grade 1-2, subjects n (%) (All Subjects (n = 59)): 2 (3.4%) | Neutropenia Severity Grade 3-4, subjects n (%) (All Subjects (n = 59)): 6 (10.2%) | Thrombocytopenia Severity Grade 1-2, subjects n (%) (All Subjects (n = 59)): 10 (17.0%) | Thrombocytopenia Severity Grade 3-4, subjects n (%) (All Subjects (n = 59)): 14 (23.7%) | Anemia Severity Grade 1-2, subjects n (%) [2]: 3 (8.1%) | Anemia Severity Grade 3-4, subjects n (%) [2]: 13 (35.1%) | Neutropenia Severity Grade 1-2, subjects n (%) (MTD Cohort (n = 40)): 2 (5.0%) | Neutropenia Severity Grade 3-4, subjects n (%) (MTD Cohort (n = 40)): 4 (10.0%) | Thrombocytopenia Severity Grade 1-2, subjects n (%) (MTD Cohort (n = 40)): 8 (20.0%) | Thrombocytopenia Severity Grade 3-4, subjects n (%) (MTD Cohort (n = 40)): 11 (27.5%) | Anemia Severity Grade 1-2, subjects n (%) [3]: 2 (8.3%) | Anemia Severity Grade 3-4, subjects n (%) [3]: 13 (54.2%) | Grade 3/4 neutropenia considered related to TG101348, subjects (all subjects): 10% | Grade 3/4 thrombocytopenia considered related to TG101348, subjects (all subjects): 24% | Dose-limiting toxicity (DLT) (at 800 mg/day, dihydrochloride monohydrate): asymptomatic grade 3 or 4 amylasemia/lipasemia that was reversible; also recorded: asymptomatic grade 3 or 4 hyperamylasemia (with or without hyperlipasemia) that was reversible | Safety findings with continued dosing beyond 6 cycles (at data cutoff, extension study): no unique safety findings have emerged | Cytokine rebound upon discontinuation of TG101348 (discontinued without prior dose reduction or tapering, dihydrochloride monohydrate): absence of immediate adverse cytokine-rebound phenomenon; also recorded: did not experience “cytokine rebound” | Discontinuation because of adverse events during the extension study, number of subjects (following a total of 24 to 46 weeks on therapy): 3 | Subjects with disease progression (hepatosplenomegaly/ascites, accelerated myelofibrosis, leukemic transformation): Three | Emergence of transfusion requirement, subjects (initiated treatment at 680 mg/day): 72% | Emergence of transfusion requirement, subjects (initiated treatment at 240-520 mg/day): 33% | Grade 3/4 anemia considered related to TG101348, subjects (of 37 subjects not transfusion dependent at baseline): 35% | Maximum tolerated dose (MTD) (oral once daily, dose escalation 30 to 800 mg/day): 680 mg/day | Grades 3/4 asymptomatic increase in ALT, subjects (overall): 7% | Grades 3/4 asymptomatic increase in AST, subjects (overall): 2% | Grades 3/4 asymptomatic increase in serum lipase, subjects (overall): 10% | Grades 3/4 increase in alkaline phosphatase, subjects (overall): 0% | Grades 3/4 increase in creatinine, subjects (overall): 0% | Grade 4 nausea, diarrhea and vomiting (overall and MTD cohort): no Grade 4 events | Grade 3 diarrhea, subjects [4]: 10% | Grade 3 nausea, subjects [4]: 3% | Grade 3 vomiting, subjects [4]: 3% | Tolerability (patients with myelofibrosis, dihydrochloride monohydrate): generally well tolerated | Serious adverse event Neutropenia: CTCAE Severity Grade (subject 101-047, 680/680 mg/day, onset day 52, stopped temporarily, Recovered/resolved): 2 | Serious adverse event Depression: CTCAE Severity Grade (subject 104-015, 360/520 mg/day, onset day 256, permanently discontinued, Not recovered/not resolved, died (suicide) approximately 12 weeks after discontinuation): 3* | Serious adverse event Hyperlipasemia: CTCAE Severity Grade (subject 105-013, 240/0 mg/day, onset day 356, action none, Recovered/resolved): 4 | Serious adverse event Thrombocytopenia: CTCAE Severity Grade (subject 105-013, 240/360 mg/day, onset day 247, permanently discontinued, Not recovered/not resolved): 4 | Serious adverse event Thrombocytopenia: CTCAE Severity Grade (subject 105-013, starting dose/dose at event 240/360 mg/day, onset day 215, action none, Recovered/resolved): 4 | Serious adverse event Gallbladder pain: CTCAE Severity Grade (subject 105-056, 680/520 mg/day, onset day 95, stopped temporarily, Recovered/resolved with sequelae): 3 | Serious adverse event Cerebrovascular accident: CTCAE Severity Grade (subject 105-056, 680/680 mg/day, onset day 22, stopped temporarily, Recovered/resolved): 4 | Serious adverse event Cardiac arrest: CTCAE Severity Grade (subject 105-059, 680/360 mg/day, onset day 42, permanently discontinued, Fatal): 5 | Serious adverse event Hyperlipasemia: CTCAE Severity Grade (subject 105-059, 680/520 mg/day, onset day 28, stopped temporarily, Recovered/resolved): 3 | Serious adverse event Hyperlipasemia: CTCAE Severity Grade (subject 105-059, 680/680 mg/day, onset day 8, stopped temporarily, Recovered/resolved): 3 | Serious adverse event Dehydration: CTCAE Severity Grade (subject 106-024, 800/400 mg/day, onset day 474, action none, Recovered/resolved): 3 | Serious adverse event Tumor lysis syndrome: CTCAE Severity Grade (subject 106-024, 800/440 mg/day, onset day 366, stopped temporarily, Recovered/resolved): 3 | Serious adverse event Dehydration: CTCAE Severity Grade [5]: 2 | Serious adverse event Diarrhea: CTCAE Severity Grade [5]: 3 | Serious adverse event Nausea: CTCAE Severity Grade [5]: 2 | Serious adverse event Vomiting: CTCAE Severity Grade [5]: 2 | Serious adverse event Pleuritic pain: CTCAE Severity Grade (subject 106-033, 680/680 mg/day, onset day 8, stopped temporarily, Recovered/resolved): 2 | Serious adverse event Dehydration: CTCAE Severity Grade (subject 106-045, 680/440 mg/day, onset day 170, stopped temporarily, Recovered/resolved): 3
